Source: patent US12522562B2, “Intestine-specific partial agonists of farnesoid X receptor and uses thereof” (EWHA DrugDesignHouse Co., Ltd., priority 2022, dated 2026)
Where two headings read alike, the source gives them in different places. Marks after values point to notes of the source that are not given here.

Experiments:
Erα = target: T1, Erα (Homo sapiens, UniProt P03372); assay: Nuclear receptor selectivity panel (PathHunter NHR protein interaction assay); conditions: relative to 17β-estradiol
T1 sequence (P03372 1-595): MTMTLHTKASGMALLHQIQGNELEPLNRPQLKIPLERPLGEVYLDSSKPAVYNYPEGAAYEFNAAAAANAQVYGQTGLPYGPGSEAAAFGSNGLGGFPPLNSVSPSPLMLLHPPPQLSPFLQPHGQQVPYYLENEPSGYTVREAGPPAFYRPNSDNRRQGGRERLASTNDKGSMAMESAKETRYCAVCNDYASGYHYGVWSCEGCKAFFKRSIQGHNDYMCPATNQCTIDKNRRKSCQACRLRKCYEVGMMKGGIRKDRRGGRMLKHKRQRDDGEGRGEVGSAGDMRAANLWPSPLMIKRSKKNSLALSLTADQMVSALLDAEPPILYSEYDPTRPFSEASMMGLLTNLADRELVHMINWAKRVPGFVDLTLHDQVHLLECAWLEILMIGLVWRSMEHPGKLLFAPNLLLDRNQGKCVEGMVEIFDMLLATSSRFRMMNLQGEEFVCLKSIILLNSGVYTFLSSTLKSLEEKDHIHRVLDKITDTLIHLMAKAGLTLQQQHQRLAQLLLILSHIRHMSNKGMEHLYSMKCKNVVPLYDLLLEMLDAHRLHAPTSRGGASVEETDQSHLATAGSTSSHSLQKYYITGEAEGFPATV

PPARγ = target: T2, PPARγ (Homo sapiens, UniProt P37231); assay: as above; conditions: read-out: % max. rel. efficacy at 100 uM, 100 μM; relative to troglitazone
T2 sequence (P37231 1-505): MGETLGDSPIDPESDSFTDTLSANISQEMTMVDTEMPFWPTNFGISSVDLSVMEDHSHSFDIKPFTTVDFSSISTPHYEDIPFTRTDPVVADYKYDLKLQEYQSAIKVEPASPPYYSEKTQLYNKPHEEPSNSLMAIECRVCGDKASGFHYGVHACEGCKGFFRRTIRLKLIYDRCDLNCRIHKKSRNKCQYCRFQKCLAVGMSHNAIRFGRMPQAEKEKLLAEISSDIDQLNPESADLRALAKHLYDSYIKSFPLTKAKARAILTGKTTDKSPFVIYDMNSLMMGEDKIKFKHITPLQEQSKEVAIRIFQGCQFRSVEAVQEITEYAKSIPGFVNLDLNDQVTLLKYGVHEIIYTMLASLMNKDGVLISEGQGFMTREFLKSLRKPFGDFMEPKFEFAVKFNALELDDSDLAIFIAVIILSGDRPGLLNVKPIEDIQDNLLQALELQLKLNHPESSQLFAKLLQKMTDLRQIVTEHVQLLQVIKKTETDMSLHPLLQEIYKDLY

FXR [1] = target: T3, FXR (Homo sapiens, UniProt Q96RI1); assay: PathHunter NHR protein interaction assay, agonist mode (FXR)
T3 sequence (Q96RI1 1-486): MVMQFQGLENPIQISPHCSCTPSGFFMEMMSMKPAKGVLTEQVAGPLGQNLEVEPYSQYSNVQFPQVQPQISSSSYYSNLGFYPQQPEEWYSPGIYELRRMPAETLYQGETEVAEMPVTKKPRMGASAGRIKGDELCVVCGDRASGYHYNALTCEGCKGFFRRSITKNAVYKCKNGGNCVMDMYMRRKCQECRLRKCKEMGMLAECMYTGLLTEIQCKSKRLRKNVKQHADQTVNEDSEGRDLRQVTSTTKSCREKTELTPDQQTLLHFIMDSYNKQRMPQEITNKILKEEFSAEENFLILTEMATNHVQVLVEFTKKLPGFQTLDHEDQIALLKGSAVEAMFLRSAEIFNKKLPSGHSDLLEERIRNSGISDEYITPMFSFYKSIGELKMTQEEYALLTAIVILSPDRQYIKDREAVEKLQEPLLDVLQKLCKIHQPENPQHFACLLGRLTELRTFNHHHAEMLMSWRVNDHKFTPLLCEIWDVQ
Method: PathHunter® CHO-K1 FXR protein interaction cells were expanded from freezer stocks according to standard procedures. Cells were seeded in a total volume of 20 μL into white walled, 384-well microplates and incubated at 37° C. for the appropriate time prior to testing. Assay media contained charcoal-dextran filtered serum to reduce the level of hormones present. For agonist determination, cells were incubated with sample to induce response. […] For antagonist determination, cells were pre-incubated with antagonist followed by agonist challenge at the EC80 concentration. […] Microplates were read following signal generation with a PerkinElmer Envision™ instrument for chemiluminescent signal detection. Compound activity was analyzed using CBIS data analysis suite (ChemInnovation, CA). For agonist mode assays, percentage activity was calculated using the following formula: % Activity=100%×(mean RLU of test sample−mean RLU of vehicle control)/(mean MAX control ligand−mean RLU of vehicle control).
In this assay, two weakly complementing fragments of the β-galactosidase are expressed within stably transfected cells. The complementing fragments of the β-galactosidase are translationally fused to the C-terminus of a full-length FXR and to the steroid receptor coactivator peptide (SRCP), respectively. When bound by ligand, the FXR will migrate to the nucleus and recruit the SRCP domain, whereby complementation occurs, generating a unit of active β-galactosidase and production of chemiluminescent signal. Thus, measurement of chemiluminescent signal directly reflects FXR-coactivator interaction.

LXRβ = target: T4, LXRβ (Homo sapiens, UniProt P55055); assay: Nuclear receptor selectivity panel (PathHunter NHR protein interaction assay); conditions: read-out: % max. rel. efficacy at 100 uM, 100 μM; relative to TO901317
T4 sequence (P55055 1-460): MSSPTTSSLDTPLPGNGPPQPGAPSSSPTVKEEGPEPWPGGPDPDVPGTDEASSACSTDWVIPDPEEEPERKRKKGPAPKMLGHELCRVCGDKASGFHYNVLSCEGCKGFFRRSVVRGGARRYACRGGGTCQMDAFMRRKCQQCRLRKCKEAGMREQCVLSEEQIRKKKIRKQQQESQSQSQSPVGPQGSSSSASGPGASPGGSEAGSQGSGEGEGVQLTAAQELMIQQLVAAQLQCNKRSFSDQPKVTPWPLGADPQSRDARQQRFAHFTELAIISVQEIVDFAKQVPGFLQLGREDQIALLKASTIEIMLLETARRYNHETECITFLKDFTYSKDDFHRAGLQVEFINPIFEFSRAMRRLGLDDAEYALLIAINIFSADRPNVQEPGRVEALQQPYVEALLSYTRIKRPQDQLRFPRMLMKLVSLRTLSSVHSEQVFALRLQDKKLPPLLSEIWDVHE

[2] = Pharmacokinetic studies of Example 11 in rats; assay type: in vivo, Sprague-Dawley rats
Method: To investigate whether Example 11 is indeed an intestine-selective/specific FXR agonist, its pharmacokinetic profile was evaluated. Male Sprague-Dawley rats (7-week old, 240-260 g) were purchased from Orient Bio. Inc. (Seongnam, Korea). Rats were kept in the cage maintained under a controlled environment (temperature of 23±3° C., relative humidity of 50±5%, and 12 h dark-light cycle) for at least 3 days. Rats were fasted overnight before dose administration. The Example 11 was dissolved in a mixture of DMSO, Tween 80, and 0.9% saline solution (v:v:v, 1:1:8) at a concentration of 2.5 mg/mL for intravenous injection (IV). Also, Example 11 was dissolved in corn oil for oral administration (PO). Rats were divided into two groups; IV group and PO group including at least 6 animals per group. After anesthetized with isoflurane, rats were given the dose of 5 mg/kg via IV injection or 80 mg/kg via PO administration by oral gavage into the stomach. Blood samples (approximately 0.25 mL) were obtained by subclavian vein puncture at 0, 0.033, 0.083, 0.167, 0.333, 0.667, 1, 2, 3, 5, 7, 10, and 24 h after IV injection. After PO administration, blood samples were obtained at 0, 0.083, 0.167, 0.333, 0.667, 1, 2, 3, 5, 7, 10, and 24 h post-dose. Subsequently, blood samples were collected in 1.5-mL Eppendorf tube on an ice. The tubes were centrifuged at 13500 rpm for 15 min at 4° C. to separate the plasma fraction. Then, the plasma samples were stored at […] until HPLC analysis. To prepare the samples for HPLC analysis, 5 μL of Example 11 or Example 24 and 5 μL of internal standard, Example 4 were added to 45 μL of plasma. For extraction, 45 μL of MeCN was added to the mixture. Then, the mixture was vortexed for 2 min and centrifuged at 13500 rpm for 15 min at room temperature. The 60 μL of clear supernatant was transferred to an insert. Then, the HPLC auto-injector was programmed to inject 40 μL of the sample to the HPLC system for analysis. The linearity of the calibration curve was obtained by plotting the peak area ratio (area of Example 11 or area of Example 24/area of Example 4). Pharmacokinetic parameters were calculated by non-compartmental analysis of the plasma concentration-time profiles using Winnonlin® Professional version 8.01 software (Pharsight Corporation, Mountain View, CA). Oral bioavailability (F) was calculated by the ratio of the dose-corrected area under the plasma drug concentration-time curve (AUClast) between oral administration and intravenous injection.

FXR [3] = target: T3, FXR; assay: PathHunter NHR protein interaction assay, antagonist mode (GW4064 challenge at EC80); assay type: cell-based; conditions: pre-incubation, then GW4064 at EC80
[4] = Fang et al., Nat. Med. 2015; cited from earlier work
PPARδ = target: T5, PPARδ (Homo sapiens, UniProt Q03181); assay: Nuclear receptor selectivity panel (PathHunter NHR protein interaction assay); conditions: read-out: ref. compd (EC50); reference compound for PPARδ
T5 sequence (Q03181 1-441): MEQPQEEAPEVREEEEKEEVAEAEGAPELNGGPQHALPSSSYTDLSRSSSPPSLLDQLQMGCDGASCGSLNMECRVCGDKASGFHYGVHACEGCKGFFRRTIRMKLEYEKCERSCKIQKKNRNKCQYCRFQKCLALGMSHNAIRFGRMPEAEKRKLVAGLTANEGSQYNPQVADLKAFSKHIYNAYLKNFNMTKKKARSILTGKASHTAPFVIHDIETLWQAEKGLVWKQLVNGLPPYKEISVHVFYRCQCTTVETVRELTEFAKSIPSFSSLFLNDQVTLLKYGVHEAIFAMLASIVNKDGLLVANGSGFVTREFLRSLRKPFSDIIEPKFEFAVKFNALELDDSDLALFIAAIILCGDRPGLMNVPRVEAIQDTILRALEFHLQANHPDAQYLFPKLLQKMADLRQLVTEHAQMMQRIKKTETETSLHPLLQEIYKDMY

[5] = system: patients with non-cirrhotic NASH; conditions: 100 mg, Phase II; cited from earlier work
patients with NASH = conditions: cited from earlier work
FXR [6] = target: T3, FXR; conditions: Chianelli et al., J. Med. Chem. 2020; cited from earlier work
[7] = Table 2, 5 concentrations, 3-fold dilution from 3.3 μM (GW4064: 10 conc. from 10 μM), one experiment in duplicate, NA = inactive at 3.3 μM
[8] = Table 5, relative to GW4064, mean ± SEM of two or three independent experiments in duplicate
[9] = read-out: % max. rel. efficacy, Table 2, relative to GW4064, top conc. 3.3 μM, one experiment in duplicate
[10] = read-out: % max. rel. efficacy, Table 4, relative to GW4064, top conc. 3.3 μM, one experiment in duplicate
[11] = read-out: % max. rel. efficacy, Table 5, relative to GW4064, mean ± SEM of two or three independent experiments in duplicate
[12] = rat plasma, intravenous dose of Example 11, 5 mg/kg, Example 24 measured as metabolite
[13] = rat, intravenous dose of Example 11, 5 mg/kg, Example 24 measured as metabolite

## COC(=O)/C=C/c1cccc(N(Cc2ccc(-c3ccc(N(C)C)cc3)c(C#N)c2)C(=O)C2CCCCC2)c1 [Example 4, (E)-3-(3-((2-cyano-4′-dimethylaminobiphenyl-4-ylmethyl)cyclohexanecarbonylamino)phenyl)acrylic Acid Methyl Ester]
Erα
  % max. rel. efficacy at 100 uM: 1%
PPARγ
  Emax at 100 µM: < 3%
FXR [1]
  EC50: 1 µM
FXR [1]; [7]
  EC50: 0.8 µM
FXR [1]; Table 5, mean ± SEM of two or three independent experiments in duplicate
  EC50: 0.8 ± 0.1 µM
FXR [1]; [8]
  % max. rel. efficacy: 40 ± 8^b %
FXR [1]; read-out: % max. rel. efficacy at 100 uM, Table 3, 100 μM, relative to GW4064
  Emax at 100 µM: 47%
FXR [1]; [9]
  Emax: 24%
FXR [1]; [10]
  Emax: 47%
FXR [1]; [11]
  Emax: 40 ± 8%
LXRβ
  Emax at 100 µM: < 3%

## CN(C)c1ccc(-c2ccc(CN(C(=O)C3CCCCC3)c3cc(F)cc(/C=C/C(=O)O)c3)cc2C#N)cc1 [Example 24]
[2]; [12]
  AUClast: 1.2 ± 0.1 µg·h/mL
  t1/2: 14.4 ± 3 min
[2]; rat, intravenous Example 11, 5 mg/kg, metabolite
  detected in plasma until (time after administration): 1 h
[2]; [13]
  CL: 4.2 ± 0.4 L/h/kg
  Vss: 1.4 ± 0.2 L/kg
[2]; rat, oral Example 11, 80 mg/kg
  detected after (time after oral administration): 3 h
FXR [1]; Table 7, 10 μM
  % agonistic efficacy: 0%
FXR [3]; 3.3 μM
  % antagonistic efficacy: 7%
FXR [3]; 10 μM
  % antagonistic efficacy: 26%

## COC(=O)/C=C/c1cccc(N(Cc2ccc(-c3ccc(N(C)C)cc3)cc2)C(=O)C2CCCCC2)c1 [Fexaramine, reference compound]
[4]
  oral bioavailability: 12%
FXR [1]
  EC50: 1 µM
FXR [1]; [7]
  EC50: 0.8 µM
FXR [1]; [8]
  % max. rel. efficacy: 29 ± 4^b %
FXR [1]; [9]
  Emax: 21%
FXR [1]; [10]
  Emax: 34%
FXR [1]; [11]
  Emax: 29 ± 4%

## CCCc1c(OCCCOc2ccc(OCC(=O)O)cc2)ccc(C(C)=O)c1O [L-165,041]
PPARδ
  EC50: 0.006 µM

## O=C(O)c1ccnc(N2CC(O)(c3ccc(OCc4c(-c5c(Cl)cccc5Cl)noc4C4CC4)cc3Cl)C2)c1 [cilofexor]
[5]
  median relative decrease in hepatic steatosis: −22.7%
  moderate to severe pruritus (patients): 14%

## Cn1nc(C(=O)N(Cc2ccccc2)Cc2ccc(C(=O)O)cc2)c2c1-c1cc(Cl)ccc1OC2 [nidufexor]
Patients with NASH; Phase II, NASH
  reduction of LFC (liver fat content): about 30%
Patients with NASH; high-dose group
  rate of pruritus: 54%
Patients with NASH; low-dose group
  rate of pruritus: 30%
FXR [6]
  maximum efficacy relative to GW4064: 57%
